The values that follow come from PubChem BioAssay AID742 (SRMLSC, 2007).

Calls of active or inactive are those of the source. No rule for the calls is given here.

The nature of assay [1]: inhibitors of Her2 kinase expression, dose response, cell-based, AlphaScreen, CellTiter-Glo viability (AID 742). The note with it: human cells, Her2 expression AlphaScreen; CTG viability; at 9.62 µM (top of the series).
In assay [2] the test system is human cells, Her2 expression AlphaScreen; CTG viability. The assay is described as above. The conditions noted are these: for EC50: viability, CellTiter-Glo. (In general: Cellular ATP, detected with luciferase, serves as a proxy for viable cell number.)

For `C#CCOC(=O)c1ccccc1C(=O)OCC#C`, the Her2 inhibition in assay [1] is -22.6% (inactive). For the same compound, the concentration for a half-maximal effect (EC50) (usually the midpoint of the concentration-response curve) in assay [2] is greater than 9.62 µM.

Take `CCOC(=O)CC1=C(C(=O)OCC)C(c2ccc(OC)cc2OC)C(C#N)=C(N)O1` (stereo not drawn): the Her2 inhibition in assay [1] was -27.6% (inactive). Also, in assay [2], the EC50 was greater than 9.62 µM.

In the case of `CSc1ccc2c(c1)N(CCC1CCCCN1C)c1ccccc1S2` (stereo not drawn), the Her2 inhibition in assay [1] was -45.6% (inactive). Besides, the half-maximal effective concentration (EC50) in assay [2] was greater than 9.62 µM.

In the case of `Cn1c(C(C#N)C(=O)c2ccco2)nc2ccccc21` (stereo not drawn), in assay [2], the IC50 (in general, the concentration that inhibits the measured activity by half) was 2.25 µM and the half-maximal effective concentration (EC50) is greater than 9.62 µM.

Regarding `O=C(Nc1ccc2c(c1)OCO2)c1cnn2cccnc12`, the Her2 inhibition in assay [1] was -5.1% (inactive). Besides, the EC50 in assay [2] is greater than 9.62 µM.

On to `CCOc1ccc(-c2nnn(CC(=O)c3cc(OC)ccc3OC)n2)cc1`, for which the Her2 inhibition in assay [1] is -22.6% (inactive). The EC50 in assay [2] is greater than 9.62 µM.

Regarding `CCN(C(=O)COC(=O)c1cc(C)n(-c2ccc(F)cc2)c1C)C1CCS(=O)(=O)C1` (stereo not drawn), the Her2 inhibition in assay [1] was -2.5% (inactive). Further, in assay [2], the EC50 was greater than 9.62 µM.

Consider `CCOC(=O)c1c(C)[nH]c(C(=O)OC/C(O)=C(\C#N)c2nc3ccccc3[nH]2)c1C`, for which the Her2 inhibition in assay [1] was 16.6% (inactive). Besides, the EC50 in assay [2] was greater than 9.62 µM.

For `Cc1ccc(CNC(=O)c2cc3c(-c4ccc(Cl)cc4)nn(C)c3s2)o1`, in assay [2], the concentration for half-maximal inhibition (IC50) is 6.48 µM and the EC50 is greater than 9.62 µM.

Regarding `COC(=O)Nc1ccc(S(=O)(=O)N(CCO)CC(F)(F)C(F)F)cc1`, the Her2 inhibition in assay [1] is -11.6% (inactive). Moreover, the 50% effective concentration (EC50) in assay [2] was greater than 9.62 µM.

Turning to `COC(=O)/C=C/S(=O)(=O)c1ccc(NC(C)=O)cc1`, the Her2 inhibition in assay [1] was 20.9% (inactive). For the same compound, in assay [2], the EC50 is greater than 9.62 µM.

For `O=S1(=O)C=C(Sc2nc3ccccc3s2)c2ccccc21`, in assay [2], the IC50 was 5.63 µM and the 50% effective concentration (EC50) was greater than 9.62 µM.

`N#C/C(=C/c1ccc(N2CCCCCC2)o1)c1ccc(F)cc1`: in assay [1], the Her2 inhibition was 4.22% (inactive). Besides, the 50% effective concentration (EC50) in assay [2] is greater than 9.62 µM.

Take `Cc1c(NC(=O)c2cccc(F)c2)c(=O)n(-c2ccccc2)n1C`: in assay [1], the Her2 inhibition was 10.6% (inactive). For the same compound, in assay [2], the EC50 is greater than 9.62 µM.

Regarding `Clc1ccc(COC(Cn2ccnc2)c2ccc(Cl)cc2Cl)c(Cl)c1` (stereo not drawn), the Her2 inhibition in assay [1] is -0.43% (inactive). The EC50 in assay [2] was greater than 9.62 µM.

Consider `Nc1nc2n(n1)C(c1cccs1)CC(c1ccc(Br)cc1)N2` (stereo not drawn), for which, in assay [1], the Her2 inhibition was -10.7% (inactive). Moreover, in assay [2], the half-maximal effective concentration (EC50) was greater than 9.62 µM.

As to `CC1CC(C)(C)Nc2ccc(OC(=O)c3ccco3)cc21` (stereo not drawn), in assay [1], the Her2 inhibition was -5.22% (inactive). In assay [2], this compound had an EC50 greater than 9.62 µM.

Take `CC1(C)CCCC2=C1CC1C(=O)N(Cc3cccnc3)C(=O)C1C2` (stereo not drawn): in assay [1], the Her2 inhibition is -13.3% (inactive). The EC50 in assay [2] was greater than 9.62 µM.

For `O=C(NCc1ccco1)C(Cc1ccccc1)N1C(=O)c2ccccc2C1=O` (stereo not drawn), the Her2 inhibition in assay [1] is -6.2% (inactive). Also, the 50% effective concentration (EC50) in assay [2] is greater than 9.62 µM.

On to `CCOc1ccccc1N(CC(=O)N1CCOCC1)S(=O)(=O)c1ccccc1`, for which the Her2 inhibition in assay [1] is 3.98% (inactive). The 50% effective concentration (EC50) in assay [2] is greater than 9.62 µM.

In the case of `CCCCCCOC(=O)C(C#N)c1nc2ccccc2nc1N1CCN(C)CC1` (stereo not drawn), in assay [1], the Her2 inhibition is -32.5% (inactive). The same compound gave a concentration for a half-maximal effect (EC50) in assay [2] greater than 9.62 µM.

`O=C(CSc1nc2cc(Cl)ccc2s1)c1ccco1`: in assay [2], the half-inhibitory concentration (IC50) is 5.09 µM and the half-maximal effective concentration (EC50) was greater than 9.62 µM.

With `CC1=CC(C)(C)Nc2ccc(OC(=O)c3ccco3)cc21`, in assay [1], the Her2 inhibition is 1.48% (inactive). The compound further yielded a half-maximal effective concentration (EC50) in assay [2] greater than 9.62 µM.

Take `N#Cc1ccc(-c2ccco2)nc1SCc1ccccc1`: the Her2 inhibition in assay [1] is 14.8% (inactive). For the same compound, the 50% effective concentration (EC50) in assay [2] was greater than 9.62 µM.

Turning to `Cc1cc(-c2ccccc2)nc(=O)[nH]1`, in assay [1], the Her2 inhibition is -18.4% (inactive). In addition, the half-maximal effective concentration (EC50) in assay [2] was greater than 9.62 µM.

In the case of `COC(=O)CC1=C(C(=O)OC)C(c2ccc3c(c2Cl)OCO3)C(C#N)=C(N)O1` (stereo not drawn), the Her2 inhibition in assay [1] was -10.7% (inactive). This compound returned an EC50 in assay [2] greater than 9.62 µM.

On to `COc1ccc(CCN2CCC(Nc3nc4ccccc4n3Cc3ccc(F)cc3)CC2)cc1`, for which, in assay [1], the Her2 inhibition is -28.9% (inactive). In assay [2], this compound registered a concentration giving a half-maximal response (EC50) greater than 9.62 µM.

As to `Cn1nc(C(=O)Nc2c(-c3ccccc3)nc3sccn23)c2ccccc2c1=O`, the Her2 inhibition in assay [1] was -13.2% (inactive). Moreover, the concentration giving a half-maximal response (EC50) in assay [2] is greater than 9.62 µM.

Regarding `N=c1n(CCO)c2ccccc2n1CCOc1ccc(Cl)cc1Cl`, the Her2 inhibition in assay [1] was -2.09% (inactive). The compound also returned an EC50 in assay [2] greater than 9.62 µM.

As for `O=C(NCCCc1ccccc1)c1ccncc1`, the Her2 inhibition in assay [1] was -8.4% (inactive). Besides, the EC50 in assay [2] was greater than 9.62 µM.

As to `COc1cc(NS(=O)(=O)c2ccc(C)cc2)c2ncccc2c1`, in assay [1], the Her2 inhibition is 18.5% (inactive). The same compound came in with a concentration giving a half-maximal response (EC50) in assay [2] greater than 9.62 µM.

In the case of `O=C(CCN1CCC(c2ccccc2)C1)c1cccs1` (stereo not drawn), the Her2 inhibition in assay [1] is -8.45% (inactive). In assay [2], this compound came in with a 50% effective concentration (EC50) greater than 9.62 µM.

In the case of `O=C(Cc1cscn1)c1ccc(O)cc1O`, in assay [1], the Her2 inhibition was 3.58% (inactive). Besides, the 50% effective concentration (EC50) in assay [2] is greater than 9.62 µM.

Take `COc1cccc(N2CCN(c3ncnc4c3[nH]c3ccc(F)cc34)CC2C)c1` (stereo not drawn): the Her2 inhibition in assay [1] was -42.1% (inactive). The compound further returned an EC50 in assay [2] of less than 0.024 µM.
